How the values were obtained:
PIT2 (Pip-p65)/PPIR = biological target: T1, PIT2 (Pip-p65)/PPIR (Streptomyces coelicolor, UniProt Q9ADN3); test: SEAP reporter assay, CHO-K1 cotransfected with pMF206 (PIT2; Pip-p65) and pMF172 (PPIR-SEAP); type: cell-based; conditions: +PI (2 μg/ml), 48 hr post transfection
T1 construct: pMF206 with pMF172 (PPIR-SEAP) in CHO-K1
T1 sequence (Q9ADN3 1-252): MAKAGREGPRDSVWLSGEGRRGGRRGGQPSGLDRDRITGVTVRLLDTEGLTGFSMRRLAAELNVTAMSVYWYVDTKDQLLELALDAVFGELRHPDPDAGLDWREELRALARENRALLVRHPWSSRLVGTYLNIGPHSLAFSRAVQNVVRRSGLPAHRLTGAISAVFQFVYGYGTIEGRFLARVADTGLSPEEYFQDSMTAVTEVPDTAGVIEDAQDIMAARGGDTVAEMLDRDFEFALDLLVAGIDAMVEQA
Description: PIT2, the fusion protein of Pip and the p65 transactivation domain of the human NF-κB transcription activator was cloned in a three step procedure: (i) The p65 domain of the human NF-κB transcription activator was amplified from pSG424-p65 (kindly provided by H. Hauser, GBF, Braunschweig, Germany) with oligos OMF97:
Chinese hamster ovary cells (CHO-K1, ATCC: CCL 61), Baby hamster kidney cells (BHK-21, ATCC: CRL-8544), and HeLa cells (ATCC: CRL-7923) as well as stable cell lines CHO-PIT1, CHO-PIT2, CHO-TWIN195, CHO-TWIN1108 and CHO-PIT1-SEAP were cultured as described before (Fussenegger et al., 1998, Nat. Biotechnol. 16,468-472) in the presence of appropriate antibiotics: G418 400 μg/ml; zeocin 100 μg/ml. Optimized CaPO4 protocols were used for high efficiency transient transfection of all cell lines (id). Transient transfected cells were routinely analyzed after 48 h for GFP or SEAP expression using fluorescence microscopy and p-nitrophenolphosphate-based light absorbance timecourse, respectively, as described before (Fussenegger et al., 1998, Nat. Biotechnol. 16, 468-472; Berger et al., 1988, Gene 66, 1-10 b). […]
In addition, pMF206 (PIT2; Pip-p65) was cotransfected with pMF172 (PPIR -SEAP) and the SEAP readout in the absence and presence of PI (2 μg/ml) was directly compared to CHO-K1 cells cotransfected with pMF156 (PIT; Pip-VP16) and pMF172 (PPIR -SEAP). […]

PIT/PPIR system = biological target: T2, PIT/PPIR system (Streptomyces coelicolor, UniProt Q9ADN3); test: Dose-response of PI-dependent SEAP expression in CHO-PIT1-SEAP; type: cell-based; conditions: 48 h
T2 construct: pMF156/pTWIN in CHO cells, PPIR-SEAP or GFP reporter
T2 sequence (Q9ADN3 1-252): T1 sequence (Q9ADN3 1-252)
Description: FIG. 2: Dose-response curve for PI-dependent gene expression. The cell line CHO-PIT1-SEAP was grown for 48 h at different PI concentrations (ng/ml). The relative SEAP production is shown over 5 orders of magnitude of PI concentration.
Chinese hamster ovary cells (CHO-K1, ATCC: CCL 61), Baby hamster kidney cells (BHK-21, ATCC: CRL-8544), and HeLa cells (ATCC: CRL-7923) as well as stable cell lines CHO-PIT1, CHO-PIT2, CHO-TWIN195, CHO-TWIN1108 and CHO-PIT1-SEAP were cultured as described before (Fussenegger et al., 1998, Nat. Biotechnol. 16,468-472) in the presence of appropriate antibiotics: G418 400 μg/ml; zeocin 100 μg/ml. Optimized CaPO4 protocols were used for high efficiency transient transfection of all cell lines (id). Transient transfected cells were routinely analyzed after 48 h for GFP or SEAP expression using fluorescence microscopy and p-nitrophenolphosphate-based light absorbance timecourse, respectively, as described before (Fussenegger et al., 1998, Nat. Biotechnol. 16, 468-472; Berger et al., 1988, Gene 66, 1-10 b). For construction of stable CHO-PIT and CHO-TWIN cell lines, CHO-K1 was cotransfected either with pMF156 or pTWIN1 and pSV2neo carrying the G418 resistance gene. CHO-PIT1-SEAP was constructed by cotransfection of pMF172 and pZeoSV2 (Invitrogen). For assessment of dose-response characteristics of PPIR -regulated gene expression, CHO-PIT1-SEAP were cultured at cell densities of 150,000/ml for 48 at various PI concentrations. The mixed populations were cloned using FACS-mediated single-cell-sorting (FACStar^Plus; Beckton Dickinson). Gel retardation assay were performed as described (Salah-Bey et al., 1995, supra) using Pip purified from an overproducing strain of E. coli. Pip (0.02 pmol) was titrated with a range of antibiotic concentrations in a reaction volume of 20 μl. […]
The levels of PPIR -regulated gene expression could be controlled by varying the concentrations of PI used for induction. This was assessed using a stable CHO cell line (CHO-PIT1-SEAP) which expresses PPIR -SEAP (pMF172) and contains also a constitutive PIT expression vector (pMF156). […]

[1] = test system: PIT-dependent promoters PPIR, PPIR2, PPIR3; test: SEAP expression from modified PI-responsive promoters (PPIR, PPIR2, PPIR3); type: cell-based, Streptomyces coelicolor
Chain of PIT-dependent promoters PPIR, PPIR2, PPIR3 (as listed by the source): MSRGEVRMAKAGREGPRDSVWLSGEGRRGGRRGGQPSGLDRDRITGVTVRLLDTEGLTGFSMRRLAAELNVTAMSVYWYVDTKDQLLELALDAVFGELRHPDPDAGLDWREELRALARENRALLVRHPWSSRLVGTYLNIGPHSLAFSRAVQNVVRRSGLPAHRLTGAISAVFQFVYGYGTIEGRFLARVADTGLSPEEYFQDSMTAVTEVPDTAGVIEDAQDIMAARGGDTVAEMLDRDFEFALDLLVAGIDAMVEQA
Description: The naturally occurring Pptr sequence contains only three distinct Pip binding sites which could accommodate PIT. In order to enhance maximal expression from streptogramin-responsive system, we constructed PI-responsive promoters with two (PPIR2) and three (PPIR3) ptr binding motifs with a total of 6 and 9 Pip binding sites, respectively.
Both DNA fragments were digested with AatII and Sse8387I (corresponding restriction sites are shown in bold) and ligated to the corresponding sites of pMF172 (PPIR -SEAP; AatII/Sse8387I) thereby replacing the single Pip binding sequence (Pptr of S. pristinaespiralis; Salah-Bey et al., 1995; Salah-Bey and Thompson, 1995) to result in plasmids pMF198 (PPIR2 -SEAP) and pMF199 (PPIR3 -SEAP). […]

Substance: pristinamycin I [PI]
- SEAP readout (slope of the p-nitrophenolphosphate-based light absorbance time courses) (PIT2 (Pip-p65)/PPIR): 0.31 ± 0.003
- PI concentration at which PIT/PPIR is fully induced (PIT/PPIR system): < 10 ng/mL
- PI concentration at which PIT/PPIR is repressed (lowest SEAP expression) (PIT/PPIR system): > 500 ng/mL
- PI concentration window in which gene expression can be adjusted (PIT/PPIR system): 10 to 500 ng/mL
- SEAP expression in the presence of PI ([1]; PPIR2 -SEAP (pMF198)): 0.073 ± 0.004
- SEAP expression in the presence of PI ([1]; PPIR2 -SEAP (pMF199) as printed): 0.09 ± 0.008
- SEAP expression in the presence of PI ([1]; PPIR -SEAP (pMF172)): 0.04 ± 0.019

From patent US6287813A, “Antibiotic-based gene regulation system” (Cistronics Cell Technology GmbH, priority 1999, dated 2001)
